Assay results taken from ChEMBL document CHEMBL1124325, “Interactions of thiol-containing androgens with human placental aromatase” (J Med Chem, 1989).

Experiments:
Aromatase [1] = target: T1, Aromatase (Homo sapiens, UniProt P11511); test: Dithiothreitol ([…]) reactivation of human placental aromatase following 1.0 uM inactivation for 5 minutes; details: read-out: Activity remaning
T1 sequence (P11511 whole entry): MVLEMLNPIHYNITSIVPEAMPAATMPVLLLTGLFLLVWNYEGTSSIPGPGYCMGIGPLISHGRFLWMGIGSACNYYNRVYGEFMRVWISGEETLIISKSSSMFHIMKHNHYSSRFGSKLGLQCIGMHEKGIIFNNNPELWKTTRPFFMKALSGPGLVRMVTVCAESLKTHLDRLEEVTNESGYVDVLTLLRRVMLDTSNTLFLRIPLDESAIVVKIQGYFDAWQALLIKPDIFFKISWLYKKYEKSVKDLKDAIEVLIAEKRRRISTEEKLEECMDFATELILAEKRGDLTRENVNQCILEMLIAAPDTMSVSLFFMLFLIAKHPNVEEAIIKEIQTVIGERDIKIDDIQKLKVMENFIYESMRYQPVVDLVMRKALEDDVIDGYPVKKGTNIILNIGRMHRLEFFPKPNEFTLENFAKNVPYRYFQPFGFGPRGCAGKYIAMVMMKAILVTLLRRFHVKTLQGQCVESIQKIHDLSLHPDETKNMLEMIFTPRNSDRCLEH

Aromatase [2] = target: T1, Aromatase; test: Binding affinity for formation of reversible enzyme-ligand complexes with human placental aromatase (PL2)
Aromatase [3] = target: T1, Aromatase; test: Maximum absorbance for formation of reversible-enzyme-ligand complexes with human placental aromatase (PL1)
Aromatase [4] = target: T1, Aromatase; test: Catalytic constant (Kcat) for reversible enzyme-ligand complex formation with human placental aromatase (PL2)
Aromatase [5] = target: T1, Aromatase; test: Dithiothreitol ([…]) reactivation of human placental aromatase following 1.0 uM inactivation for 10 minutes; details: read-out: Activity remaning
Aromatase [6] = target: T1, Aromatase; test: Binding affinity(KI) for formation of reversible enzyme-ligand complex with human placental aromatase (PL2)
Aromatase [7] = target: T1, Aromatase; test: Binding affinity constant for formation of reversible enzyme-ligand complex with human placental aromatase (PL1); details: read-out: Ks

SMILES | activity at 1 µM (Aromatase [1]) | Ki (Aromatase [2]) | Activity (Aromatase [3]) | k cat (Aromatase [4]) | activity at 1 µM (Aromatase [5]) | Ki (Aromatase [6]) | Kd (Aromatase [7])
C[C@]12CCC(=O)C(O)=C1CCC1C2CC[C@]2(C)C(=O)CCC12.OC(CS)C(O)CS (stereo not given in full) | 41% | – | – | – | – | – | –
C[C@]12CCC3C(CCC4=CC(=O)CC[C@@]43CS)C1CCC2=O.OC(CS)C(O)CS (stereo not given in full) | 59% | – | – | – | – | – | –
C[C@]12CCC3C(CCC4=CC(=O)CC[C@@]43S)C1CCC2=O.OC(CS)C(O)CS (stereo not given in full) | 48% | – | – | – | – | – | –
C[C@]12CCC3C(CCC4=CC(=O)CC[C@@]43CS)C1CCC2=O (stereo not given in full) | 60% | 47 nM | 0.179 Amax nM-1 | 0.0025 | – | – | –
C#CC[C@]12CCC(=O)C=C1CCC1C2CC[C@]2(C)C(=O)CCC12.OC(CS)C(O)CS (stereo not given in full) | – | – | – | – | 63% | – | –
C[C@]12C[C@@H](S)C(=O)C=C1CCC1C2CC[C@]2(C)C(=O)CCC12.OC(CS)C(O)CS (stereo not given in full) | – | – | – | – | 74% | – | –
C[C@]12C[C@@H](S)C(=O)C=C1CCC1C2CC[C@]2(C)C(=O)CCC12 (stereo not given in full) | – | – | 0.169 Amax nM-1 | 0.002 | 75% | 3100 nM | 602 nM
C[C@]12CCC3C(CCC4=CC(=O)CC[C@@]43S)C1CCC2=O (stereo not given in full) | 50% | – | 0.187 Amax nM-1 | 0.0043 | – | 28 nM | 144 nM
C[C@]12CCC3C(CCC4=CC(=O)CC[C@@]43S)C1CC[C@@H]2O (stereo not given in full) | – | – | 0.167 Amax nM-1 | 0.004 | – | 100 nM | 785 nM
CC12CCC3C(CC=C4CC(=O)CCC43CO)C1CCC2=O (stereo not given) | – | – | 0.125 Amax nM-1 | – | – | – | 368 nM
C[C@]12CCC(=O)C=C1CC[C@@H]1[C@@H]2CC[C@]2(C)C(=O)CC[C@@H]12 [ANDROSTENEDIONE] | – | – | 0.177 Amax nM-1 | – | – | – | 105 nM
OC(CS)C(O)CS (stereo not drawn) [DL-DITHIOTHREITOL] | 97% | – | – | – | 84% | – | –
C[C@]12CCC(=O)C(O)=C1CC[C@@H]1[C@@H]2CC[C@]2(C)C(=O)CC[C@@H]12 [FORMESTANE] | 43% | – | 0.162 Amax nM-1 | 0.008 *10e-3 | – | 542 nM | 324 nM
C#CC[C@]12CCC(=O)C=C1CC[C@@H]1[C@@H]2CC[C@]2(C)C(=O)CC[C@@H]12 [PLOMESTANE] | – | – | 0.191 Amax nM-1 | 0.0007 | 65% | 6.2 nM | 213 nM
C[C@]12CC[C@H]3[C@@H](CCC4=CC(=O)CC[C@@]43C)[C@@H]1CC[C@@H]2O [TESTOSTERONE] | – | – | 0.166 Amax nM-1 | – | – | – | –
